According to patent US11460474B2, “Marker for statin treatment stratification in heart failure” (Roche Diagnostics Operations, Inc., priority 2013, dated 2022):

Tests used:
[1] = tested on: patient with heart failure; test: Case examples: statin therapy started after biomarker determination in heart failure patients; details: person
Method: PlGF is determined in a plasma sample obtained from the patient. The PlGF value is above 22 pg/mL. The physician prescribes atorvastatin 20 mg/d and closely monitors creatine kinase to exclude myopathy.

patients with CHF = details: rosuvastatin 10 mg daily, CORONA and GISSI-HF trials; cited from earlier work

SMILES	outcome (death or hospitalization) ([1]; NYHA class III heart failure, prior myocardial infarction, PlGF above 22 pg/mL, atorvastatin 20 mg/d, next 1.5 years)	outcome (death or hospitalization) ([1]; class C heart failure, no CAD, GDF-15 above 3800 pg/mL, atorvastatin 10 mg/d, next 16 months)	effect of statin treatment on primary end point (patients with CHF)
CC(C)c1c(C(=O)Nc2ccccc2)c(-c2ccccc2)c(-c2ccc(F)cc2)n1CC[C@@H](O)C[C@@H](O)CC(=O)O [atorvastatin, Atorvastatin]	remains stable with a good outcome	remains stable with a good outcome	–
CC(C)c1nc(N(C)S(C)(=O)=O)nc(-c2ccc(F)cc2)c1/C=C/[C@@H](O)C[C@@H](O)CC(=O)O [rosuvastatin, Rosuvastatin]	–	–	failed to demonstrate a beneficial effect
